The test system of data set [1] is Caco-2. Nature of the data set: Inhibition of TNFalpha induced barrier dysfunctionin human Caco2 cells assessed as prevention of morphological changes in ZO1 protein at 10 uM pre-treated on apical side for 1 hr before TNFalpha stimulation on basolateral side for 48 hrs by confocal laser scanning microscopy. It counts as functional, cell-based.
The test system of data set [2] is Caco-2. Nature of the data set: Increase in transepithelial electrical resistance in human Caco2 cells at 10 uM pre-treated on apical side and measured after 36 to 72 hrs. It counts as functional, cell-based.
For data set [3], the system named is Caco-2. Nature of the data set: Inhibition of TNFalpha induced barrier dysfunctionin human Caco2 cells assessed as increase in transepithelial electrical resistance at 10 uM pre-treated on apical side for 1 hr before TNFalpha stimulation on basolateral side for 72 hrs by cellZScope monitoring device based assay. The class given is functional, cell-based.
Data set [4] has as its system Caco-2. Nature of the data set: Effect on barrier function in human Caco2 cells assessed as LY transport at 10 uM pre-treated on apical side for 1 hr and measured after 48 hrs. The class given is ADME, cell-based. Particulars: caco-2, 48 h. On the technique in general: Caco-2 cells form a polarised layer with tight junctions and transporters.
Data set [5] has as its system Caco-2. The data set can be described thus: Cytotoxicity in human Caco2 cells assessed as reduction in ATP metabolism at 50 to 100 uM incubated for 24 hrs by cell-titer-Glo luminescent cell viability assay. The class given is ADME, cell-based. Particulars: caco-2, 24 h.
Data set [6] has as its system Caco-2. The data set can be described thus: Inhibition of TNFalpha induced barrier dysfunctionin human Caco2 cells assessed as increase in transepithelial electrical resistance at 10 uM treated on apical side for 1 hr post TNFalpha stimulation on basolateral side for 24 hrs and measured after 72 hrs by cellZScope monitoring device based assay. The class given is functional, cell-based.

Data set [7] has as its system Caco-2. Nature of the data set: Stimulation of growth in human Caco2 cells assessed as […] in ATP metabolism at 10 uM incubated for 24 hrs by cell-titer-Glo luminescent cell viability assay. It counts as functional, cell-based.
The subject of data set [8] is Caco-2. The data set can be described thus: Cytotoxicity in human Caco2 cells assessed as reduction in ATP metabolism at 1 to 100 uM incubated for 24 hrs by cell-titer-Glo luminescent cell viability assay. Particulars: caco-2, 24 h. The class given is ADME, cell-based.
The test system of data set [9] is Caco-2. The data set can be described thus: Cytotoxicity in human Caco2 cells assessed as reduction in ATP metabolism at 100 uM incubated for 24 hrs by cell-titer-Glo luminescent cell viability assay. The class given is ADME, cell-based. Conditions: caco-2, 24 h.
The test system of data set [10] is Caco-2. Nature of the data set: Cytotoxicity in human Caco2 cells assessed as reduction in ATP metabolism at 1 to 50 uM incubated for 24 hrs by cell-titer-Glo luminescent cell viability assay. It counts as ADME, cell-based. Conditions: caco-2, 24 h.

Three compounds from ChEMBL document CHEMBL4270483, “Effect of Hops Derived Prenylated Phenols on TNF-α Induced Barrier Dysfunction in Intestinal Epithelial Cells” (J Nat Prod, 2017) can be followed below.

The structures appear in SMILES notation. The source made the active and inactive calls. The calls are words filed in the database; no cut-off is given here.

Consider `COc1cc(O)c(CC=C(C)C)c(O)c1C(=O)/C=C/c1ccc(O)cc1` [XANTHOHUMOL], for which the inhibition result with Caco-2 [1], in the data set with Caco-2 [3] and in the data set with Caco-2 [6] was “inactive” each time. For the same compound, the result in the data set on Caco-2 [2] and with Caco-2 [7] was Active. Moreover, the Activity result with Caco-2 [4] is listed as “Non-Toxic”; with Caco-2 [5] it was 55.3%.

For `CC(C)=CCc1c(O)cc(O)c2c1O[C@H](c1ccc(O)cc1)CC2=O`, the inhibition entry with Caco-2 [1], in the data set on Caco-2 [3] and with Caco-2 [6] was “Active” in each case. For the same compound, the result with Caco-2 [2] was Active. Besides, the Activity entry in the data set with Caco-2 [4] and with Caco-2 [8] was “Non-Toxic” in each case.

Regarding `CC(C)=CCc1c(O)cc2c(c1O)C(=O)CC(c1ccc(O)cc1)O2` (centres undefined), the outcome in the data set on Caco-2 [2] was Active. Moreover, in the data set on Caco-2 [3], the inhibition result is “Active”. For the same compound, the Activity result with Caco-2 [4] is reported as “Non-Toxic”; in the data set with Caco-2 [9], 18%; in the data set on Caco-2 [10], “Non-Toxic”. In the data set on Caco-2 [6], the inhibition entry is “inactive”.
